Data as given in the NIST ThermoML archive (doi:10.1021/je020114l).
Numbers after ± are expanded uncertainties.

Settings: 101.33 kPa, Liquid, Capillary tube (Ostwald / Ubbelohde) method

| viscosity (298.15 K) [mPa·s] | viscosity (313.15 K) [mPa·s] | SMILES |
| --- | --- | --- |
| 0.2944 ± 0.0034 | 0.2537 ± 0.0031 | CCCCCC [hexane] |
| 3.08 ± 0.027 | 1.794 ± 0.016 | CCC(C)O (stereo unspecified) [butan-2-ol] |

| SMILES | viscosity (298.15 K) [mPa·s] | viscosity (313.15 K) [mPa·s] |
| --- | --- | --- |
| CCCCCl [1-chlorobutane] | 0.4273 ± 0.0045 | 0.3645 ± 0.004 |
